Source: patent publication US10494378B2, “Fused ring pyrimidine compound, intermediate, and preparation method, composition and use thereof” (GUANGZHOU MAXINOVEL PHARMACEUTICALS CO., LTD., priority 2015, dated 2019)

Legend:
Format in all cases: biochemical
FGR kinase = molecular target: T1, FGR kinase (Homo sapiens, UniProt P09769); assay: IC50 evaluation assay of Src family kinase inhibition: FGR; details: 28° C.; average of two tests; read-out: IC50 (nM) inhibiting Src family kinase FGR
T1 construct: purchased Carna 08-166
T1 sequence (P09769 whole entry): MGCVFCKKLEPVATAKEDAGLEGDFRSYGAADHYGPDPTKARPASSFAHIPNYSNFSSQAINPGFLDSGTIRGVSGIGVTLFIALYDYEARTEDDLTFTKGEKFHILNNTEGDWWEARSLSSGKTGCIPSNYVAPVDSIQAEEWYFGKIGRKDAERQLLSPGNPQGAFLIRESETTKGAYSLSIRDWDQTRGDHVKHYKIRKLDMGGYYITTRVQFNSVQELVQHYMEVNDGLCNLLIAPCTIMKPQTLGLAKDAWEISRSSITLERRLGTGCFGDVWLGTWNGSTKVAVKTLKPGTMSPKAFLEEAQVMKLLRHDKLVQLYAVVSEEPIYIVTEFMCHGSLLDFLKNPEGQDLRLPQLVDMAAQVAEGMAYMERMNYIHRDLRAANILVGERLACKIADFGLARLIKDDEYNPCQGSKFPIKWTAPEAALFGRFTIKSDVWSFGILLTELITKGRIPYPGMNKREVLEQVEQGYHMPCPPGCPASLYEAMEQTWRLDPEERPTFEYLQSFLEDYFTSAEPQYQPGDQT
Method: 1. The compound was dissolved in 100% DMSO, diluted into solutions with appropriate concentration gradients with water according to experimental requirement, and added to a 96-well plate.
2. c-Src kinase (Carna, Cat. No. 08-173, Lot. No. 05CBS-1367), LYNαkinase (Carna, Cat. No. 08-171, Lot. No. 06CBS-3296D), FYN kinase (Carna, Cat. No. 08-068, Lot. No. 05CBS-1032), LCK kinase (Carna, Cat. No. 08-170, Lot. No. 07CBS-2482), HCK kinase (BPS, Cat. No. 40440, Lot. No. 1001), FGR kinase (Carna, Cat. No. 08-166, Lot. No. 05CBS-2781), YES kinase (Carna, Cat. No. 08-175, Lot. No. 06CBS-3247) were diluted to the optimum concentration with the following buffer solution: 50 mM HEPES, pH 7.5, 0.0015% Brij-35, 10 mM MgCl2, 2 mM DTT. Transfer to the 96-well plate and incubate with the compound at 28° C. for a period of time.
3. The buffer solution (100 mM HEPES, pH 7.5, 0.0015% Brij-35, 0.2% Coating Reagent and […]) was added to terminate the reaction.
4. The conversion rate was read with Caliper Reader. The inhibition rate was calculated as the average of two tests.

JAK1 kinase = molecular target: T2, JAK1 kinase (Homo sapiens, UniProt P23458); assay: IC50 evaluation assay on JAK1 kinase inhibition (Caliper); details: adenosine triphosphate at Km; 1 hour at 28° C.; average of two tests; read-out: IC50 (nM) inhibiting JAK 1 kinase
T2 construct: purchased Carna 08-144
T2 sequence (P23458 whole entry): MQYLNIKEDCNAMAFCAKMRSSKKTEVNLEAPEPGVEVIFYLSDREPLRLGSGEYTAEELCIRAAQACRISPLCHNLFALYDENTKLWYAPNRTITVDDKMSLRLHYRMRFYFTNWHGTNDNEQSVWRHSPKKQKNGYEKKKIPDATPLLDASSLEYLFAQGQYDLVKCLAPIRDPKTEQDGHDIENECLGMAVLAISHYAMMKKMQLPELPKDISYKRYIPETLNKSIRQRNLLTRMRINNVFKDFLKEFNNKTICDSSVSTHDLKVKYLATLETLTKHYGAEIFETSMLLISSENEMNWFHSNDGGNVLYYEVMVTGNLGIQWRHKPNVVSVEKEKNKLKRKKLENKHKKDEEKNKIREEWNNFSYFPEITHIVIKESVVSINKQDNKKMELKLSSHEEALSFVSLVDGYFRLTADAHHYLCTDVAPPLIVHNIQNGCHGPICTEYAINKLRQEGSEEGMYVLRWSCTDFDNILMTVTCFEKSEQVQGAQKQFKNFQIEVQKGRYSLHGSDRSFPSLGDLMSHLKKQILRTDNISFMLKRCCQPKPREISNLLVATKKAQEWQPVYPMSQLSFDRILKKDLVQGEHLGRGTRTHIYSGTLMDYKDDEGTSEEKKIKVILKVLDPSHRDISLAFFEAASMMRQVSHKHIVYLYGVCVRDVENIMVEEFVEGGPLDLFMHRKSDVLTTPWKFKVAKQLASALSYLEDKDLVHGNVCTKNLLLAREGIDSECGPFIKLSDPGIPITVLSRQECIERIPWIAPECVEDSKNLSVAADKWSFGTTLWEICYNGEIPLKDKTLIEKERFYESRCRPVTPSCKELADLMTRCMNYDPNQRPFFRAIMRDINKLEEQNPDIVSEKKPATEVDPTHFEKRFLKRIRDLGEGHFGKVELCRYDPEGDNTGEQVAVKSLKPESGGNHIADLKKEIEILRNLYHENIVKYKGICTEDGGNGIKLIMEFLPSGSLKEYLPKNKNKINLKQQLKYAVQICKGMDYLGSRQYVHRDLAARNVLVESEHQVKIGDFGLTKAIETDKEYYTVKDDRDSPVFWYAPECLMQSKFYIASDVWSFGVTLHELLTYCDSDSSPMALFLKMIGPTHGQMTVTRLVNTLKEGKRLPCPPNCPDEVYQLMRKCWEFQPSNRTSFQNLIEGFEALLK
Method: (§1) 1. The compound was dissolved in 100% DMSO, diluted into solutions with appropriate concentration gradients with water according to experimental requirement, and added to a 384-well plate.
(§2) 2. JAK2 kinase (Carna, Cat. No. 08-045, Lot. No. 07CBS-1927) and JAK3 kinase (Carna, Cat. No. 08-046, Lot. No. 08CBS-0371) were diluted to the optimum concentration with the following buffer solution: 50 mM HEPES, pH 7.5, 0.0015% Brij-35, 2 mM DTT. JAK1 kinase (Carna, Cat. No. 08-144, Lot. No. 11CBS-0144D) was diluted to the optimum concentration with the following buffer solution: 25 mM HEPES pH 7.5, 0.01% Brij-35, 2 mM DTT, 0.01M Triton. Transfer to the 384-well plate and incubated with the compound for a period of time.
(§3) 3. […] The substrate of JAK1 was diluted to the optimum concentration with the following buffer: 25 mM HEPES, pH 7.5, 0.01% Brij-35, 10 mM MgCl2, 0.01M Triton, adenosine triphosphate at Km. Add to the 384-well plate to initiate there action and react for 1 hour at 28° C.
(§4) 4. 1 Eq. of sulfuric acid solution was added to terminate the reaction, the conversion rate was read with Caliper Reader. The inhibition rate was calculated as the average of two tests.

JAK2 kinase = molecular target: T3, JAK2 kinase (Homo sapiens, UniProt O60674); assay: IC50 evaluation assay on JAK2 kinase inhibition (Caliper); details: adenosine triphosphate at Km; 1 hour at 28° C.; average of two tests; read-out: IC50 (nM) inhibiting JAK 2 kinase
T3 construct: purchased Carna 08-045
T3 sequence (O60674 whole entry): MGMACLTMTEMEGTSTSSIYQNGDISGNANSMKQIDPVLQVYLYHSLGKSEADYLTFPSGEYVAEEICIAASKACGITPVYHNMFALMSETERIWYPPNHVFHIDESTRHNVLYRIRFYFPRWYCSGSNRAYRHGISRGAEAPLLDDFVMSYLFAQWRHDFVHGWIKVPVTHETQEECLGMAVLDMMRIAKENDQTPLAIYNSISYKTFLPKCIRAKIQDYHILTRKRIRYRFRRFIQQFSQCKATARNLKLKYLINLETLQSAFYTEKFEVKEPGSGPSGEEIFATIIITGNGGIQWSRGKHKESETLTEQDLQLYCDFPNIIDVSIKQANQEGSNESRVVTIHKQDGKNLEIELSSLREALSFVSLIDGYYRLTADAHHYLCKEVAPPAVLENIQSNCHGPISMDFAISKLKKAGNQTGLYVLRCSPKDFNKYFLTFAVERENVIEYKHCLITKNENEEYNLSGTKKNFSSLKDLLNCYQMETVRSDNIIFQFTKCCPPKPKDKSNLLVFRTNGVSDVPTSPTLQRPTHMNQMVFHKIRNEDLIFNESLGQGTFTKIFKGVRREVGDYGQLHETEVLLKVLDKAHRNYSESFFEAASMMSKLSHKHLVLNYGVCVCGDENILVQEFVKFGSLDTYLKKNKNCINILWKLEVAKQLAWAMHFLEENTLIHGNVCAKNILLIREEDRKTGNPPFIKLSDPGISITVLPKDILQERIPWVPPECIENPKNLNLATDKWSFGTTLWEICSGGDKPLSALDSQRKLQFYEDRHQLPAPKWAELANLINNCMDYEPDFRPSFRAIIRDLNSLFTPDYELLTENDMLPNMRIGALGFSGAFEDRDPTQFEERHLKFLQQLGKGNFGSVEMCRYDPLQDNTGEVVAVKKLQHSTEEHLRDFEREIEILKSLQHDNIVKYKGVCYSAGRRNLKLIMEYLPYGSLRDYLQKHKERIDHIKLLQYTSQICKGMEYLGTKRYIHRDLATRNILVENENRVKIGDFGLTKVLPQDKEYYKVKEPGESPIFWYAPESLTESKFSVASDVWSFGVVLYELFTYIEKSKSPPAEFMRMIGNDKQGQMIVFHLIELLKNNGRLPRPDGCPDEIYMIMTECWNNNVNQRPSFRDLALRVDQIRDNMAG
Method: as §1, §2, §3, §4

JAK3 kinase = molecular target: T4, JAK3 kinase (Homo sapiens, UniProt P52333); assay: IC50 evaluation assay on JAK3 kinase inhibition (Caliper); details: adenosine triphosphate at Km; 1 hour at 28° C.; average of two tests; read-out: IC50 (nM) inhibiting JAK 3 kinase
T4 construct: purchased Carna 08-046
T4 sequence (P52333 1-1124): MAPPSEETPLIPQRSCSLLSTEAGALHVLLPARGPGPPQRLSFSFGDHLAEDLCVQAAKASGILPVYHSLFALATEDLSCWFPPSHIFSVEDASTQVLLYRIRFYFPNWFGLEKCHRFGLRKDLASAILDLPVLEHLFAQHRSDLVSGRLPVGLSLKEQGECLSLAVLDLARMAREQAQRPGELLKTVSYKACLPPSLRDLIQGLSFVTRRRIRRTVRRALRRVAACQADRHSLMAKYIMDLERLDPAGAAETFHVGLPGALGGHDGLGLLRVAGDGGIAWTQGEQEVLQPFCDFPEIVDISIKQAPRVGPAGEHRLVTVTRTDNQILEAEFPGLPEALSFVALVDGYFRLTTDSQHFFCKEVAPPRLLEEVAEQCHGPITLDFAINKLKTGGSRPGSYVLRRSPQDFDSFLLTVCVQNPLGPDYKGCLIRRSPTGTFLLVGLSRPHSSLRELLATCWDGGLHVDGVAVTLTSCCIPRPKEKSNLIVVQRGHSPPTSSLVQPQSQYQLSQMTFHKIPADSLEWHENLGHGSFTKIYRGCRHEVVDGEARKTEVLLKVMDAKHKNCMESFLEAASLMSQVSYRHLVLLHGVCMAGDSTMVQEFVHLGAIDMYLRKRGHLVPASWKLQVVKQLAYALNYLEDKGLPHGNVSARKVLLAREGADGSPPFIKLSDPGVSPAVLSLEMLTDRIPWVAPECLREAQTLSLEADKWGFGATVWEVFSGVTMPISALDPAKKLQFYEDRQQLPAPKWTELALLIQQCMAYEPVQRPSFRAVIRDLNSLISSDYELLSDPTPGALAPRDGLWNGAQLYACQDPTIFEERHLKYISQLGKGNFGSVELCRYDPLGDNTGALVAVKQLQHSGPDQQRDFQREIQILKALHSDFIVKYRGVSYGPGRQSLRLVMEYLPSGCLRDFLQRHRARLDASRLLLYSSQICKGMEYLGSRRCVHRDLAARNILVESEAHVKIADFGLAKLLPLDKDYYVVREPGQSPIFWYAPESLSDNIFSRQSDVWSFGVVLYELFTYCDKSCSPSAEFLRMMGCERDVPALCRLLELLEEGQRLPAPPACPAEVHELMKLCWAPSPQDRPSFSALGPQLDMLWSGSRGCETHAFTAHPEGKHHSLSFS
Method: as §1, §2, §3, §4

| IC50 (FGR kinase) | IC50 (JAK1 kinase) | IC50 (JAK2 kinase) | IC50 (JAK3 kinase) | SMILES |
| --- | --- | --- | --- | --- |
| 14 nM |  |  |  | COc1cc(F)ccc1-c1c(C)sc2cnc(Nc3cnn(C4CCNCC4)c3)nc12 [Compound 31, N-[7-(4-fluoro-2-methoxyphenyl)-6-methylthieno[3,2-d]pyrimidinyl-2-yl]-1-(piperidinyl-4-yl)-1H-pyrazol-4-amine] |
| 11 nM | 5.6 nM | 0.71 nM | 1.1 nM | COc1cc(F)ccc1-c1c(C)sc2cnc(Nc3cnn(C4CCN(CCO)CC4)c3)nc12 [Compound 34, 2-[4-(4-{[7-(4-fluoro-2-methoxyphenyl)-6-methylthieno[3,2-d]pyrimidinyl-2-yl]amino}-1H-pyrazol-1-yl)-piperidinyl-1-yl]-1-ethanol] |
